System: 156681-154-R-J1 tumor spheroid viability
Test: Anticancer human tumor 156681-154-R-J1 patient-derived melanoma cell line growth inhibition
Details: spheroids with HUVEC and MSC; for IC50: curve of first compound; for viability, T/C: stronger effect = lower value
Method in brief: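 Complex tumor spheroids combined malignant cells with endothelial cells and mesenchymal stem cells. DNA-damaging drugs and DNA repair inhibitors were tested alone and in combination, at half-log dilutions down from clinical Cmax (top 10 microM if Cmax unknown), 0.25% DMSO final.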
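Note: spheroids exposed to compounds for 7 days before readout.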
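Throughout, for viability, T/C: percent of vehicle control viability where 100% = DMSO-treated spheroids.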

## COc1ccc([C@@H](O)c2cc(-c3ncnc4cc(N5CCOCC5)ccc34)c(F)cc2Cl)nn1 + CC[C@@]1(O)C(=O)OCc2c1cc1n(c2=O)Cc2cc3c(CN(C)C)c(O)ccc3nc2-1
Second compound 0.003 µM
  IC50: 5.78 µM
Second compound 0.00949 µM
  IC50: 3.58 µM
Second compound 0.03 µM
  IC50: 0.616 µM
Second compound 0.0949 µM
  IC50: < 0.0316 µM
Second compound 0.3 µM
  IC50: < 0.0316 µM
Second compound 0.003 µM, first compound 0.0316 µM
  viability, T/C: 80.6%
Second compound 0.003 µM, first compound 0.1 µM
  viability, T/C: 70.4%
Second compound 0.003 µM, first compound 0.316 µM
  viability, T/C: 78.3%
Second compound 0.003 µM, first compound 1 µM
  viability, T/C: 63.9%
Second compound 0.003 µM, first compound 3.16 µM
  viability, T/C: 54.4%
Second compound 0.003 µM, first compound 10 µM
  viability, T/C: 46.6%
Second compound 0.00949 µM, first compound 0.0316 µM
  viability, T/C: 89.9%
Second compound 0.00949 µM, first compound 0.1 µM
  viability, T/C: 75.9%
Second compound 0.00949 µM, first compound 0.316 µM
  viability, T/C: 75%
Second compound 0.00949 µM, first compound 1 µM
  viability, T/C: 62.4%
Second compound 0.00949 µM, first compound 3.16 µM
  viability, T/C: 47.6%
Second compound 0.00949 µM, first compound 10 µM
  viability, T/C: 43.3%
Second compound 0.03 µM, first compound 0.0316 µM
  viability, T/C: 71.5%
Second compound 0.03 µM, first compound 0.1 µM
  viability, T/C: 57.8%
Second compound 0.03 µM, first compound 0.316 µM
  viability, T/C: 53.9%
Second compound 0.03 µM, first compound 1 µM
  viability, T/C: 49.5%
Second compound 0.03 µM, first compound 3.16 µM
  viability, T/C: 41.8%
Second compound 0.03 µM, first compound 10 µM
  viability, T/C: 35.3%
Second compound 0.0949 µM, first compound 0.0316 µM
  viability, T/C: 24.1%
Second compound 0.0949 µM, first compound 0.1 µM
  viability, T/C: 30.7%
Second compound 0.0949 µM, first compound 0.316 µM
  viability, T/C: 30.3%
Second compound 0.0949 µM, first compound 1 µM
  viability, T/C: 34%
Second compound 0.0949 µM, first compound 3.16 µM
  viability, T/C: 36.3%
Second compound 0.0949 µM, first compound 10 µM
  viability, T/C: 28.4%
Second compound 0.3 µM, first compound 0.0316 µM
  viability, T/C: 32.9%
Second compound 0.3 µM, first compound 0.1 µM
  viability, T/C: 36.8%
Second compound 0.3 µM, first compound 0.316 µM
  viability, T/C: 35.6%
Second compound 0.3 µM, first compound 1 µM
  viability, T/C: 42.1%
Second compound 0.3 µM, first compound 3.16 µM
  viability, T/C: 25.9%
Second compound 0.3 µM, first compound 10 µM
  viability, T/C: 8.42%

## O=C(c1cc(Cc2n[nH]c(=O)c3ccccc23)ccc1F)N1CCN(C(=O)C2CC2)CC1 + COc1cc2c(cc1O)CCNC21CSC2c3c(OC(C)=O)c(C)c4c(c3C(COC1=O)N1C(O)C3Cc5cc(C)c(OC)c(O)c5C(C21)N3C)OCO4
Second compound 30 pM
  IC50: > 30 µM
Second compound 94.9 pM
  IC50: > 30 µM
Second compound 0.0003 µM
  IC50: 5.84 µM
Second compound 0.000949 µM
  IC50: < 0.0949 µM
Second compound 0.003 µM
  IC50: < 0.0949 µM
Second compound 30 pM, first compound 0.0949 µM
  viability, T/C: 83.5%
Second compound 30 pM, first compound 0.3 µM
  viability, T/C: 77%
Second compound 30 pM, first compound 0.949 µM
  viability, T/C: 73.4%
Second compound 30 pM, first compound 3 µM
  viability, T/C: 72.2%
Second compound 30 pM, first compound 9.49 µM
  viability, T/C: 65.3%
Second compound 30 pM, first compound 30 µM
  viability, T/C: 60.1%
Second compound 94.9 pM, first compound 0.0949 µM
  viability, T/C: 82.1%
Second compound 94.9 pM, first compound 0.3 µM
  viability, T/C: 85.9%
Second compound 94.9 pM, first compound 0.949 µM
  viability, T/C: 82.7%
Second compound 94.9 pM, first compound 3 µM
  viability, T/C: 66.3%
Second compound 94.9 pM, first compound 9.49 µM
  viability, T/C: 69%
Second compound 94.9 pM, first compound 30 µM
  viability, T/C: 53.5%
Second compound 0.0003 µM, first compound 0.0949 µM
  viability, T/C: 69.8%
Second compound 0.0003 µM, first compound 0.3 µM
  viability, T/C: 68.6%
Second compound 0.0003 µM, first compound 0.949 µM
  viability, T/C: 64.1%
Second compound 0.0003 µM, first compound 3 µM
  viability, T/C: 66.8%
Second compound 0.0003 µM, first compound 9.49 µM
  viability, T/C: 37.8%
Second compound 0.0003 µM, first compound 30 µM
  viability, T/C: 21.2%
Second compound 0.000949 µM, first compound 0.0949 µM
  viability, T/C: 4.61%
Second compound 0.000949 µM, first compound 0.3 µM
  viability, T/C: 4.05%
Second compound 0.000949 µM, first compound 0.949 µM
  viability, T/C: 3.32%
Second compound 0.000949 µM, first compound 3 µM
  viability, T/C: 4.15%
Second compound 0.000949 µM, first compound 9.49 µM
  viability, T/C: 0.45%
Second compound 0.000949 µM, first compound 30 µM
  viability, T/C: 0.13%
Second compound 0.003 µM, first compound 0.0949 µM
  viability, T/C: 0.12%
Second compound 0.003 µM, first compound 0.3 µM
  viability, T/C: 0.12%
Second compound 0.003 µM, first compound 0.949 µM
  viability, T/C: 0.1%
Second compound 0.003 µM, first compound 3 µM
  viability, T/C: 0.11%
Second compound 0.003 µM, first compound 9.49 µM
  viability, T/C: 0.11%
Second compound 0.003 µM, first compound 30 µM
  viability, T/C: 0.17%
